Read-outs that look alike come from different tables or passages of the source.

Assay [1] concerns RPE-Neo or RPE-MYC or RPE-MYC expressing an EGFP-Histone 2B fusion protein. As to the kind of experiment: Phenotypic screening assay: arrest in mitosis, change in DNA content (polyploidy), cell death. In kind it is cell-based. To be noted: 20 nM to 20 μM, 24, 48 or 72 hours. The method, boiled down: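 Compound exposure from 20 nM to 20 μM in RPE lines (Neo, MYC, or MYC with EGFP-histone H2B), seeded 18-24 h earlier; imaging at 24, 48 or 72 h read mitotic arrest or altered DNA content, with MTT for proliferation. Results reported as A–D range categories.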

The subject of the next assay is RPE-Neo or RPE-MYC cells. As to the kind of experiment: MTT assay of cellular proliferation (proliferative arrest). Type of assay: cell-based. The following applies: read-out: Min. Effective conc. for Proliferative arrest (>50%).
The mark [2] stands for this setting: read-out: Min. Effective conc. for Along with Cell Death.
[3] abbreviates: ≥5%, read-out: Min. Effective conc. for Mitotic Arrest (≥5%).
Setting [4] is: ≥5%, read-out: Min. Effective conc. for Polyploidy (≥5%).

For `COc1ccc(CN2C(=O)CC(c3ncc(C)o3)=Cc3ccc(-c4cnn(CC(=O)O)c4)cc32)cc1` [Compound 69, 2-(4-(1-(4-Methoxybenzyl)-4-(5-methyloxazol-2-yl)-2-oxo-2,3-dihydro-1H-benzo[b]azepin-8-yl)-1H-pyrazol-1-yl)acetic acid], the minimal effective concentration (in assay [1] (setting [2]); in assay [1] (setting [3]); in assay [1] (setting [4]); with RPE-Neo or RPE-MYC cells) was 1 to 10 µM in each case.

On to `Cc1cnc(C2=Cc3ccc(-c4cn[nH]c4)cc3N(Cc3ccc(C)c(F)c3)C(=O)C2)o1` [Compound 22, 1-(3-fluoro-4-methylbenzyl)-4-(5-methyloxazol-2-yl)-8-(1H-pyrazol-4-yl)-1,3-dihydro-2H-benzo[b]azepin-2-one], for which the minimal effective concentration (in assay [1] (setting [2]); in assay [1] (setting [3]); in assay [1] (setting [4]); in the assay on RPE-Neo or RPE-MYC cells) was 0.001 to 1 µM throughout.

On to `COc1ccc(CN2C(=O)CC(c3ncc(C)o3)=Cc3ccc(-c4cccnc4)cc32)cc1` [Compound 39, 1-(4-methoxybenzyl)-4-(5-methyloxazol-2-yl)-8-(pyridin-3-yl)-1,3-dihydro-2H-benzo[b]azepin-2-one], for which the minimal effective concentration (in assay [1] (setting [2]); in assay [1] (setting [3]); in assay [1] (setting [4]); in the assay with RPE-Neo or RPE-MYC cells) was 0.001 to 1 µM throughout.

As to `COc1ccc(CN2C(=O)CC(c3ncc(C)o3)=Cc3ccc(-c4cnn(C5CC5)c4)cc32)cc1` [Compound 34, 8-(1-cyclopropyl-1H-pyrazol-4-yl)-1-(4-methoxybenzyl)-4-(5-methyloxazol-2-yl)-1,3-dihydro-2H-benzo[b]azepin-2-one], the minimal effective concentration (in assay [1] (setting [2]); in assay [1] (setting [3]); in assay [1] (setting [4]); with RPE-Neo or RPE-MYC cells) was 0.001 to 1 µM each time.

With `COc1ccc(CN2C(=O)CC(c3ncc(C)o3)=Cc3ccc(-c4cnn(C(C)(C)C#N)c4)cc32)cc1` [Compound 86, 2-(4-(1-(4-Methoxybenzyl)-4-(5-methyloxazol-2-yl)-2-oxo-2,3-dihydro-1H-benzo[b]azepin-8-yl)-1H-pyrazol-1-yl)-2-methylpropanenitrile], the minimal effective concentration (in assay [1] (setting [2]); in assay [1] (setting [3]); in assay [1] (setting [4]); with RPE-Neo or RPE-MYC cells) was 0.001 to 1 µM in each case.

`COc1ccc(CN2C(=O)CC(c3ncc(C)o3)=Cc3ccc(-c4ccc(OC)nc4)cc32)cc1` [Compound 44, 1-(4-methoxybenzyl)-8-(6-methoxypyridin-3-yl)-4-(5-methyloxazol-2-yl)-1,3-dihydro-2H-benzo[b]azepin-2-one]: the minimal effective concentration (in assay [1] (setting [2]); in assay [1] (setting [3]); in assay [1] (setting [4]); in the assay with RPE-Neo or RPE-MYC cells) was 0.001 to 1 µM each time.

As to `COc1ccc(CN2C(=O)CC(c3ncc(C)o3)=Cc3ccc(-c4ccncc4)cc32)cc1` [Compound 40, 1-(4-methoxybenzyl)-4-(5-methyloxazol-2-yl)-8-(pyridin-4-yl)-1,3-dihydro-2H-benzo[b]azepin-2-one], the minimal effective concentration (in assay [1] (setting [2]); in assay [1] (setting [3]); in assay [1] (setting [4]); in the assay with RPE-Neo or RPE-MYC cells) was 0.001 to 1 µM each time.

Regarding `COc1ccc(CN2C(=O)CC(c3ncc(C)o3)=Cc3ccc(-c4cnn(CC(N)=O)c4)cc32)cc1` [Compound 50, 2-(4-(1-(4-methoxybenzyl)-4-(5-methyloxazol-2-yl)-2-oxo-2,3-dihydro-1H-benzo[b]azepin-8-yl)-1H-pyrazol-1-yl)acetamide], the minimal effective concentration (in assay [1] (setting [2]); in assay [1] (setting [3]); in assay [1] (setting [4]); with RPE-Neo or RPE-MYC cells) was 0.001 to 1 µM each time.

As to `COc1ccc(CN2C(=O)CC(c3ncc(C)o3)=Cc3ccc(-c4ccnc(N)c4)cc32)cc1` [Compound 55, 8-(2-Aminopyridin-4-yl)-1-(4-methoxybenzyl)-4-(5-methyloxazol-2-yl)-1,3-dihydro-2H-benzo[b]azepin-2-one], the minimal effective concentration (in assay [1] (setting [2]); in assay [1] (setting [3]); in assay [1] (setting [4]); in the assay on RPE-Neo or RPE-MYC cells) was 0.001 to 1 µM in each case.

For the molecule `COc1ccc(CN2C(=O)CC(c3ncc(C)o3)=Cc3ccc(-c4ccc(F)nc4)cc32)cc1` [Compound 41, 8-(6-fluoropyridin-3-yl)-1-(4-methoxybenzyl)-4-(5-methyloxazol-2-yl)-1,3-dihydro-2H-benzo[b]azepin-2-one], the minimal effective concentration (in assay [1] (setting [2]); in assay [1] (setting [3]); in assay [1] (setting [4]); with RPE-Neo or RPE-MYC cells) was 0.001 to 1 µM in each case.

With `COc1ccc(CN2C(=O)CC(c3ncc(C)o3)=Cc3ccc(-c4cnn(CC(C)(C)O)c4)cc32)cn1` [Compound 103, 8-(1-(2-Hydroxy-2-methylpropyl)-1H-pyrazol-4-yl)-1-((6-methoxypyridin-3-yl)methyl)-4-(5-methyloxazol-2-yl)-1,3-dihydro-2H-benzo[b]azepin-2-one], the minimal effective concentration (in assay [1] (setting [2]); in assay [1] (setting [3]); in assay [1] (setting [4]); with RPE-Neo or RPE-MYC cells) was 0.001 to 1 µM in each case.

For the molecule `COc1ccc(CN2C(=O)CC(c3nnc(C)o3)=Cc3ccc(Br)cc32)cc1` [Compound 15, 8-bromo-1-(4-methoxybenzyl)-4-(5-methyl-1,3,4-oxadiazol-2-yl)-1,3-dihydro-2H-benzo[b]azepin-2-one], the minimal effective concentration (in assay [1] (setting [2]); in assay [1] (setting [3]); in assay [1] (setting [4]); with RPE-Neo or RPE-MYC cells) was 1 to 10 µM each time.

Consider `COc1ccc(CN2C(=O)CC(c3ncc(C)o3)=Cc3ccc(-c4cnn(C5(C(N)=O)CC5)c4)cc32)cc1` [Compound 92, 1-(4-(1-(4-Methoxybenzyl)-4-(5-methyloxazol-2-yl)-2-oxo-2,3-dihydro-1H-benzo[b]azepin-8-yl)-1H-pyrazol-1-yl)cyclopropane-1-carboxamide], for which the minimal effective concentration (in assay [1] (setting [2]); in assay [1] (setting [3]); in assay [1] (setting [4]); in the assay on RPE-Neo or RPE-MYC cells) was 0.001 to 1 µM throughout.

For the molecule `CCOC(C)n1cc(-c2ccc3c(c2)N(Cc2ccc(OC)cc2)C(=O)CC(c2ncc(C)o2)=C3)cn1` (centres unmarked) [Compound 58, 8-(1-(1-Ethoxyethyl)-1H-pyrazol-4-yl)-1-(4-methoxybenzyl)-4-(5-methyloxazol-2-yl)-1,3-dihydro-2H-benzo[b]azepin-2-one], the minimal effective concentration (in assay [1] (setting [2]); in assay [1] (setting [3]); in assay [1] (setting [4]); with RPE-Neo or RPE-MYC cells) was 0.001 to 1 µM each time.

`COC(=O)C1=Cc2ccccc2N(Cc2ccc(C)c(F)c2)C(=O)C1` [Compound 12, methyl 1-(3-fluoro-4-methylbenzyl)-2-oxo-2,3-dihydro-1H-benzo[b]azepine-4-carboxylate]: the minimal effective concentration (in assay [1] (setting [2]); in assay [1] (setting [3]); in assay [1] (setting [4]); in the assay with RPE-Neo or RPE-MYC cells) was 0.001 to 1 µM in each case.

`Cc1ccc(CN2C(=O)CC(c3nnc(C4CC4)o3)=Cc3ccccc32)cc1F` [Compound 13, 4-(5-cyclopropyl-1,3,4-oxadiazol-2-yl)-1-(3-fluoro-4-methylbenzyl)-1,3-dihydro-2H-benzo[b]azepin-2-one]: the minimal effective concentration (in assay [1] (setting [2]); in assay [1] (setting [3]); in assay [1] (setting [4]); in the assay on RPE-Neo or RPE-MYC cells) was 0.001 to 1 µM in each case.

Turning to `COc1ccc(CN2C(=O)CC(c3ncc(C)o3)=Cc3ccc(-c4cnn(C5(CC#N)CN(S(=O)(=O)N(C)C)C5)c4)cc32)cc1` [Compound 91, 3-(Cyanomethyl)-3-(4-(1-(4-methoxybenzyl)-4-(5-methyloxazol-2-yl)-2-oxo-2,3-dihydro-1H-benzo[b]azepin-8-yl)-1H-pyrazol-1-yl)-N,N-dimethylazetidine-1-sulfonamide], the minimal effective concentration (in assay [1] (setting [2]); in assay [1] (setting [3]); in assay [1] (setting [4]); with RPE-Neo or RPE-MYC cells) was 0.001 to 1 µM each time.

Take `COc1ccc(CN2C(=O)CC(c3ncc(C)o3)=Cc3ccc(-c4cnc(N)nc4)cc32)cc1` [Compound 47, 8-(2-aminopyrimidin-5-yl)-1-(4-methoxybenzyl)-4-(5-methyloxazol-2-yl)-1,3-dihydro-2H-benzo[b]azepin-2-one]: the minimal effective concentration (in assay [1] (setting [2]); in assay [1] (setting [3]); in assay [1] (setting [4]); with RPE-Neo or RPE-MYC cells) was 0.001 to 1 µM in each case.

As to `COc1ccc(CN2C(=O)CC3(c4ncc(C)o4)CC3c3ccc(Br)cc32)cc1` (centres unmarked) [Compound 17, 6-bromo-4-(4-methoxybenzyl)-1a-(5-methyloxazol-2-yl)-1a,2,4,8b-tetrahydrobenzo[b]cyclopropa[d]azepin-3(1H)-one], the minimal effective concentration (in assay [1] (setting [2]); in assay [1] (setting [3]); in assay [1] (setting [4]); with RPE-Neo or RPE-MYC cells) was 1 to 10 µM each time.

Take `Cc1cnc(C2=Cc3ccc(-c4cccnc4)cc3N(Cc3ccc(C)c(F)c3)C(=O)C2)o1` [Compound 23, 1-(3-fluoro-4-methylbenzyl)-4-(5-methyloxazol-2-yl)-8-(pyridin-3-yl)-1,3-dihydro-2H-benzo[b]azepin-2-one]: the minimal effective concentration (in assay [1] (setting [2]); in assay [1] (setting [3]); in assay [1] (setting [4]); in the assay on RPE-Neo or RPE-MYC cells) was 0.001 to 1 µM in each case.
